Experiments:
[1] = Hygroscopicity (Dynamic Vapor Sorption, DVS) measurement; format: physicochemical; conditions: 25° C.; for hygroscopicity (overall assessment): DVS 0 to 95 % RH
Description: The hygroscopicity was tested by using the crystal form I of above Example 8.
i) Model name: DVS Intrinsic (Surface Measurement Systems LTD. UK)
ii) Humidity: Initial 0% maximum 95%
iii) Experiment time: 7 hours
After placing a certain amount (10 mg) of the crystal form I compound prepared in Example 8 on a sample pan in a sample chamber, nitrogen was flowed through a tube connected into the sample chamber for the first one hour so as to remove moisture in the chamber and moisture of the sample. Humidity in the chamber was controlled by controlling water vapor, and target relative humidity was increased step by step from initial 0% to 10% every 20 minutes, so as to measure a moisture content of crystal form I for 205 min. A mass of the sample was measured […] (from 0% RH to 95% RH) to collect data at 10% RH intervals, and a change in weight of the sample according to the increase and decrease of humidity was graphed.

[2] = Pharmacokinetic (PK) test, oral capsule in beagle dog; format: in vivo; conditions: 100 mg oral, powder in capsule
Description: A pharmacokinetic (PK) experiment was performed on the crystal form I compound according to Example 8.
The powder of the crystal form I compound of Example 8 was filled into a capsule in an amount of 100 mg, and the capsule was orally administered to a beagle dog at 100 mg once a day, and then the biokinetics of the drug was confirmed.
Specifically, 100 mg of the crystal form I compound was orally administered to the beagle dog, and blood was collected at a predetermined time, so as to measure a concentration of (S)-4-((1-(4,8-dichloro-1-oxo-2-phenyl-1,2-dihydroisoquinoline-3-yl)ethyl)amino)pyrido[2,3-d]pyrimidine-5(8H)-one. With respect to pharmacokinetic parameters, the BA Calc 2007 program was used to calculate an area under the plasma concentration-time curve from dosing time to final plasma concentration quantification time t (AUCt), area under the plasma concentration-time curve from dosing time to infinite time (AUCi), peak plasma concentration (Cmax), time for maximum plasma concentration (Tmax), and terminal elimination half-life (t1/2). As a result, a significance between substances was confirmed by Student t-test (SPSS) at a 95% confidence interval, and the results thereof are shown in table 2 below.

[3] = Accelerated stability test (HPLC impurities, content, crystal form); format: physicochemical; conditions: for Crystal form / Content / Individual impurity / Total impurity: 4θ±2° C. and RH 75±5%; for Content / Individual impurity / Total impurity: wt %
Description: The powder of the crystal form I compound according to above Example 8 was doubly packed with an LDPE bag, then packed with a paperboard tube, and left alone at 4θ±2° C. and RH 75±5% for zero and six months, after which impurities were measured by using a high speed liquid chromatography under the following conditions.
<HPLC Conditions> • Detector: Ultraviolet absorption spectrophotometer (wavelength: 307 nm) • Column: Kromasil 100-5C18 (4.6×250 mm, […]) or a column similar thereto • Column temperature: 25° C. • Injection amount: 10 μl • Mobile phase: Mobile phase A—20 mmol/L of ammonium acetate buffer solution (pH 4.5, acetic acid), Mobile phase B—acetonitrile:methanol=8:2

Long-term stability test = format: physicochemical; conditions: for Content / Individual impurity / Total impurity / Crystal form: 25±2° C. and RH 6θ±5%; for Content / Individual impurity / Total impurity: capsule in PTP packing, wt %
Description: The powder of the crystal form I compound according to above Example 8 was doubly packed with an LDPE bag, then packed with a paperboard tube, and filled into a capsule, after which the capsule was subjected to PTP packing to carry out a long-term stability test (25±2° C. and RH 6θ±5%).

[4] = Stress stability test (temperature / humidity); format: physicochemical; conditions: for Content / Individual impurity / Total impurity: wt %
Description: The crystal form I prepared in above Example 8 was left alone under the stress conditions (temperature: 60° C., humidity: 40° C., RH75%) for 0, 7 and 14 days, after which impurities were measured by using high speed liquid chromatography.

[5] = stress: humidity (40° C., RH75%), 7 days
[6] = stress: humidity (40° C., RH75%), 14 days
[7] = stress: humidity (40° C., RH75%), zero day (initial)
[8] = stress: temperature (60° C.), 7 days
[9] = stress: temperature (60° C.), 14 days
[10] = stress: temperature (60° C.), zero day (initial)

hygroscopicity (overall assessment) [1]: non-hygroscopicity | hygroscopicity (overall assessment) ([1]; listed as crystal form I): remarkably excellent non-hygroscopicity | water (moisture) content by DVS ([1]; relative humidity 0.0 %): 0.01% | water (moisture) content by DVS ([1]; relative humidity 10.0 %): 0.06% | water (moisture) content by DVS ([1]; relative humidity 20.0 %): 0.11% | water (moisture) content by DVS ([1]; relative humidity 30.0 %): 0.16% | water (moisture) content by DVS ([1]; relative humidity 40.0 %): 0.2% | water (moisture) content by DVS ([1]; relative humidity 50.0 %): 0.24% | water (moisture) content by DVS ([1]; relative humidity 60.0 %): 0.28% | water (moisture) content by DVS ([1]; relative humidity 70.0 %): 0.33% | water (moisture) content by DVS ([1]; relative humidity 80.0 %): 0.38% | water (moisture) content by DVS ([1]; relative humidity 90.0 %): 0.46% | water (moisture) content by DVS ([1]; relative humidity 95.0 %): 0.54% | bioavailability (in words) [2]: excellent bioavailability | concentration in blood (in words) [2]: high concentration in blood | AUC(0-inf) ([2]; plasma): 559 ng·h/mL | AUC(0-t) ([2]; plasma): 540 ng·h/mL | Cmax ([2]; plasma): 215 ng/mL | Tmax ([2]; plasma): 1.25 h | half-life ([2]; plasma): 1.56 h | Crystal form ([3]; six months): Form I | Content ([3]; six months): 99.7% | Individual impurity ([3]; six months): 0.02% | Total impurity ([3]; six months): 0.16% | Crystal form ([3]; zero month (initial)): Form I | Content ([3]; zero month (initial)): 100.0% | Individual impurity ([3]; zero month (initial)): 0.02% | Total impurity ([3]; zero month (initial)): 0.14% | Content (Long-term stability test; six months): 99.7% | Individual impurity (Long-term stability test; six months): 0.02% | Total impurity (Long-term stability test; six months): 0.15% | Content (Long-term stability test; zero month (initial)): 100.0% | Individual impurity (Long-term stability test; zero month (initial)): 0.02% | Total impurity (Long-term stability test; zero month (initial)): 0.14% | Crystal form (Long-term stability test; six months): Form I | Crystal form (Long-term stability test; zero month (initial)): Form I | Content [4, 5]: 99.6% | Individual impurity [4, 5]: 0.58% | Total impurity [4, 5]: 0.64% | Content [4, 6]: 100.8% | Individual impurity [4, 6]: 0.58% | Total impurity [4, 6]: 0.65% | Content [4, 7]: 99.1% | Individual impurity [4, 7]: 0.58% | Total impurity [4, 7]: 0.66% | Content [4, 8]: 100.0% | Individual impurity [4, 8]: 0.58% | Total impurity [4, 8]: 0.64% | Content [4, 9]: 99.7% | Individual impurity [4, 9]: 0.58% | Total impurity [4, 9]: 0.65% | Content [4, 10]: 99.1% | Individual impurity [4, 10]: 0.58% | Total impurity [4, 10]: 0.66%
Compound: C[C@H](Nc1ncnc2[nH]ccc(=O)c12)c1c(Cl)c2cccc(Cl)c2c(=O)n1-c1ccccc1 [Crystal form I, (S)-4-((1-(4,8-dichloro-1-oxo-2-phenyl-1,2-dihydroisoquinoline-3-yl)ethyl)amino)pyrido[2,3-d]pyrimidin-5(8H)-one]
change of impurities and content (in words) ([3]; accelerated conditions, six months): neither significant change nor change with time | change of impurities and content (in words) (Long-term stability test; long-term conditions, six months): neither significant change nor change with time | change of impurities and content (in words) ([4]; stress conditions, 0, 7 and 14 days): neither significant change nor change with time

From US20220204502A1, “CRYSTAL POLYMORPHISM OF PI3K INHIBITOR AND METHOD FOR PREPARING SAME” (BORYUNG PHARMACEUTICAL CO., LTD, priority 2019, published 2022)
